Measurements as given in US20070286839A1, “COMPOSITION COMPRISING JOJOBA CARBOXYLATES IN COMBINATION WITH JOJOBA ALCOHOL AND COSMETIC FORMULATION COMPRISING SAME” (priority 2006, published 2007).

System: normal, human-derived epidermal keratinocytes
Assay: EPIDERM Skin Model In Vitro Toxicity Testing System, dermal irritancy potential (ET-50 test)
Conditions: time at which percent viability equals 50%
Experimental: Applicants' jojobate carboxylate/jojoba alcohol/glycol formulation of Example I was evaluated by MatTek Corporation using an EPIDERM Skin Model In Vitro Toxicity Testing System.
The percentage of viable cells was then determined for each test sample using a spectrophotometric analysis at 570 nm. Thereafter, a semi-log plot of the percent viabilities, on the linear Y axis, versus the dosing times, on the log X axis. By interpolation, the time which the percent viability would equal 50%, i.e. the ET-50 time, was determined.

CCCCCCCCCCCCOS(=O)(=O)[O-].[Na+] [Sodium Lauryl Sulfate]
ET-50 time: less than 1 hours

Triton X
ET-50 time: 3.7 h
